These results are taken from ChEMBL document CHEMBL1129223, “1-Oxo-3-aryl-1H-indene-2-carboxylic acid derivatives as selective inhibitors of fibroblast growth factor receptor-1 tyrosine kinase” (Bioorg Med Chem Lett, 1997).

Molecules are shown by their SMILES.

Experiment [1] has as its target T1, Proto-oncogene tyrosine-protein kinase Src (Homo sapiens, UniProt P12931). In words: Inhibitory activity against c-src tyrosine kinase.
Experiment [2] concerns the target T2, Fibroblast growth factor receptor (Homo sapiens, UniProt P22607+P11362+P22455+P21802). In words: Inhibitory activity against fibroblast growth factor receptor (FGFr). Format: protein assay.
Experiment [3] has as its target Platelet-derived growth factor receptor (Homo sapiens) (UniProt P09619+P16234). The experiment in a line: Inhibitory activity against platelet-derived growth factor receptor (PDGFr) at 50 uM.
Experiment [4] has as its target T1, Proto-oncogene tyrosine-protein kinase Src. The experiment in a line: Inhibitory activity against c-src tyrosine kinase at 50 uM.
Experiment [5] has as its target T2, Fibroblast growth factor receptor. The experiment in a line: Inhibitory activity against fibroblast growth factor receptor (FGFr) at 50 uM. Format: protein assay.

T1 sequence (P12931 2-536 limits assumed): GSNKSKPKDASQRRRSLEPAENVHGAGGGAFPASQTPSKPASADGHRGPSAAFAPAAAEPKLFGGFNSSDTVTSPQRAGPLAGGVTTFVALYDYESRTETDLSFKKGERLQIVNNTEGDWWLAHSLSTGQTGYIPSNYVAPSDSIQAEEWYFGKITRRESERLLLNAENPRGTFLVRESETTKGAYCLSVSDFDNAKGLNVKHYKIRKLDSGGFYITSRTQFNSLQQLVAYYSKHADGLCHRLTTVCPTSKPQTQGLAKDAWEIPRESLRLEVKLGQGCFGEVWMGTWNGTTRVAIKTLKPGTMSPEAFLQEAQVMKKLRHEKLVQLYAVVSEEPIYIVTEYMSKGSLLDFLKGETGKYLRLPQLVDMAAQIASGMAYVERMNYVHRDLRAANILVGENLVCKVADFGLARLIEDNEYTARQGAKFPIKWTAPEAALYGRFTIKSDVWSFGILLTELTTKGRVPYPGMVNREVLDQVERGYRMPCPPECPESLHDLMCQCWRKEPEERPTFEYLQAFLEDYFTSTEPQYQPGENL
T2 sequence (P11362 whole entry, looked up): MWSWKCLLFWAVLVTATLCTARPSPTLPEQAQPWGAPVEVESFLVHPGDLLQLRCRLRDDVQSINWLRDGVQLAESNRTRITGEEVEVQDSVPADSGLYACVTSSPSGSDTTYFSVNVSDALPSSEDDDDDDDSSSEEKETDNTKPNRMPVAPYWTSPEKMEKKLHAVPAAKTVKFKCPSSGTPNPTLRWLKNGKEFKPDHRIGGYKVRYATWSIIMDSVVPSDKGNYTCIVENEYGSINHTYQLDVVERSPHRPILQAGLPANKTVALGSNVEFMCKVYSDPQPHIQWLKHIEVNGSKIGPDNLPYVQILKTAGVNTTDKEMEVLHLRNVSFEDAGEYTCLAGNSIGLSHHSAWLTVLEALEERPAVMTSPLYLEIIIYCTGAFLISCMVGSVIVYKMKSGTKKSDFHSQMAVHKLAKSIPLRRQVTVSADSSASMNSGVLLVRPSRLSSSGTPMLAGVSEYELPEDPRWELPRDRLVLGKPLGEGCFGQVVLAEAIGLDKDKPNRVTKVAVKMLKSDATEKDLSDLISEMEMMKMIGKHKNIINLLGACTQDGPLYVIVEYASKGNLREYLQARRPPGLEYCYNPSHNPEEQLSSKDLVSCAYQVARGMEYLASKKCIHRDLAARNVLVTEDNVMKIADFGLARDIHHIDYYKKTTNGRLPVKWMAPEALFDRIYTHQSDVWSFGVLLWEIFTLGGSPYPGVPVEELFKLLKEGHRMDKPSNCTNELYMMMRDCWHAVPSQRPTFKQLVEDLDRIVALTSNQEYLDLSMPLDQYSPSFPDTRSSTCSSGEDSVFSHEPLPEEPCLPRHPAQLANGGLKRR
T2 sequence (P21802 whole entry, looked up): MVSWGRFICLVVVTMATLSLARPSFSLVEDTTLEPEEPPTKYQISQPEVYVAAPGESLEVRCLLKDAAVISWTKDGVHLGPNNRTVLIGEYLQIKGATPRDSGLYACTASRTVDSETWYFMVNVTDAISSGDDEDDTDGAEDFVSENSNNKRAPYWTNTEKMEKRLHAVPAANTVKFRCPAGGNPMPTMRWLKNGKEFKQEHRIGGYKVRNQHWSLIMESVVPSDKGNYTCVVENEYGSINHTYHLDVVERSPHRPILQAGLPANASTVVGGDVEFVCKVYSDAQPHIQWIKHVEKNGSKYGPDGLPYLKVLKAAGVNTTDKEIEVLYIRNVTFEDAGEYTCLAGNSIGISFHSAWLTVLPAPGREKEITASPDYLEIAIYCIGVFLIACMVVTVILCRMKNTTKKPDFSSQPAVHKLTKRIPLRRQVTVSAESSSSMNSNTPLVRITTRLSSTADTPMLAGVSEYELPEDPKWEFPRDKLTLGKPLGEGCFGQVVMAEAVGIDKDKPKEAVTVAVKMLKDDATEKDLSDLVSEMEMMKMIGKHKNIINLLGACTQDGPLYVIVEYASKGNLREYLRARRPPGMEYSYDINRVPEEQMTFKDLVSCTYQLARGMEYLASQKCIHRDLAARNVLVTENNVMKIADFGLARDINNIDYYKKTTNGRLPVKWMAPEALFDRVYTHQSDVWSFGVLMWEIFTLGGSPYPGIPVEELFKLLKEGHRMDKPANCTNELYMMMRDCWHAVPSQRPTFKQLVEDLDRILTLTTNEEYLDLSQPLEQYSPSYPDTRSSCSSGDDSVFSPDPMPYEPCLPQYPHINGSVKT
T2 sequence (P22455 whole entry, looked up): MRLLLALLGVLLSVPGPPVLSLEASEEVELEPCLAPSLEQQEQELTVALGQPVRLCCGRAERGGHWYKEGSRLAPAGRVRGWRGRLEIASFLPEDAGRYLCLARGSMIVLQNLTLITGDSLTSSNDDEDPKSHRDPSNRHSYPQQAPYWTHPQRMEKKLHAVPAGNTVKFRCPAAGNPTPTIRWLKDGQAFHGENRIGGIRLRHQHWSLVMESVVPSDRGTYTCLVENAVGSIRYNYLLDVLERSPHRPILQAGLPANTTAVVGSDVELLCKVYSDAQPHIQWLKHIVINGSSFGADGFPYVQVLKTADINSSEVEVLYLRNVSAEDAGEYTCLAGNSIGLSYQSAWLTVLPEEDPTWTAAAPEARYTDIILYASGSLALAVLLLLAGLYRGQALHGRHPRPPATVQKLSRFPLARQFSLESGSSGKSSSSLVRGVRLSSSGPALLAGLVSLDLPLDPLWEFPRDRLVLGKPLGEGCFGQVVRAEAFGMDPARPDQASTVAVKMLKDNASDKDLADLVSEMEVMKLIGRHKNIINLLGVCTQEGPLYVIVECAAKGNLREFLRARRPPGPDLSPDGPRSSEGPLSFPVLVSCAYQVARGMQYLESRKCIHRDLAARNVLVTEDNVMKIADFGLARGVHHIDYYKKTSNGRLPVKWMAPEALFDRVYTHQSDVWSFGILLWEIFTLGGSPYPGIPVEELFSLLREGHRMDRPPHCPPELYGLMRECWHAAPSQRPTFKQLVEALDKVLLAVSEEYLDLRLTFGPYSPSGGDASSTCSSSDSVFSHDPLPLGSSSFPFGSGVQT
T2 sequence (P22607 whole entry, looked up): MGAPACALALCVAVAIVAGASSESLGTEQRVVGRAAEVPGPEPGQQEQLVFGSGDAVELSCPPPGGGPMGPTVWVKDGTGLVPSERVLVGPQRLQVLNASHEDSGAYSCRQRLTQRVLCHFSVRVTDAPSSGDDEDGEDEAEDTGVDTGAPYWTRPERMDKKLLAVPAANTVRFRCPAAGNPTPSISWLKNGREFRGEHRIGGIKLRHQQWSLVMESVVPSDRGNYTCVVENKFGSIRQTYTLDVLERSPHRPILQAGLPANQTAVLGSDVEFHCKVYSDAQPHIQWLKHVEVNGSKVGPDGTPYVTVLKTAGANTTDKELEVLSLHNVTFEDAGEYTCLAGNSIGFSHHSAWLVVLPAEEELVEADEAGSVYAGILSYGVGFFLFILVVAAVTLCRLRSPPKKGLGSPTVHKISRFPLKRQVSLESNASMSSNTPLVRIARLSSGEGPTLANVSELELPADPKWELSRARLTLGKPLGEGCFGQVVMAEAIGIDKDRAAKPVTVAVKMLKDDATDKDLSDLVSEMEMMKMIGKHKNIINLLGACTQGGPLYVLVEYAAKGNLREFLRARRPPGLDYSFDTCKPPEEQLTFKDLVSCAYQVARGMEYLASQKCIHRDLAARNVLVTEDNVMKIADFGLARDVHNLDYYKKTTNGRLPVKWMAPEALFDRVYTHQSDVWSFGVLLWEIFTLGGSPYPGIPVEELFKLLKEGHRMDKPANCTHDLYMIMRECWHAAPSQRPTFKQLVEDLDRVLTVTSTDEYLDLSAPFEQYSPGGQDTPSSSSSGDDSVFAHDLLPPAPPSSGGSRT

For the molecule `COC(=O)C1=C(c2ccccc2)c2c(OC)cccc2C1=O`, the values for the half-inhibitory concentration (IC50) in experiment [1] and in experiment [2] were 13 µM and 15 µM, respectively. The same molecule had an inhibition in experiment [3] of 19%.

Take `NC(=O)C1=C(c2ccc(Cl)cc2)c2ccccc2C1=O`: the IC50 in experiment [1] is 9.6 µM; in experiment [2], 5.4 µM. The same molecule registered an inhibition in experiment [3] of 27%.

As for `COC(=O)C1=C(c2ccccc2)c2ccccc2C1=O`, the values for the IC50 in experiment [1] and in experiment [2] were 25 µM and 5.1 µM, respectively. Further, the inhibition in experiment [3] was 19%.

Consider `CCN(CC)CCNC(=O)C1=C(c2ccccc2)c2ccccc2C1=O`, for which the inhibition in experiment [4] was found to be 11%; in experiment [5], 21%; in experiment [3] it was 8%.

As for `CN(C)C(=O)C1=C(c2ccccc2)c2ccccc2C1=O`, the figures for the inhibition in experiment [4], in experiment [5] and in experiment [3] were 1%, 10% and 10%, respectively.

Take `COc1ccc(C2=C(C(N)=O)C(=O)c3ccccc32)cc1`: the half-maximal inhibitory concentration (IC50) is 4 µM in experiment [1] and 10.6 µM in experiment [2]. In experiment [3], the inhibition stood at 23%.

With `COC(=O)C1=C(c2ccccc2)c2cccc(C)c2C1=O`, the figures for the inhibition in experiment [4] and in experiment [3] were 38% and 11%, respectively. Moreover, the half-maximal inhibitory concentration (IC50) in experiment [2] worked out at 44 µM.

Consider `NC(=O)C1=C(c2ccccc2)c2ccccc2C1=O`, for which the IC50 amounted to 3.6 µM in experiment [1] and 4.7 µM in experiment [2]. The inhibition in experiment [3] came to 25%.

Regarding `COC(=O)C1=C(c2ccccc2)c2cc(Cl)ccc2C1=O.COC(=O)C1=C(c2ccccc2)c2ccc(Cl)cc2C1=O`, the figures for the inhibition in experiment [4] and in experiment [3] were 10% and 25%, respectively. In addition, in experiment [2], the IC50 was 6.2 µM.

Regarding `CNC(=O)C1=C(c2ccccc2)c2ccccc2C1=O`, the inhibition came to 16% in experiment [4] and 24% in experiment [3]. Also, the IC50 in experiment [2] was determined as 21 µM.

As to `O=C(O)C1=C(c2ccccc2)c2ccccc2C1=O`, the inhibition in experiment [4] worked out at 7%; in experiment [3], 9%. The molecule further registered an IC50 in experiment [2] of 25 µM.

`COC(=O)C1=C(c2ccccc2)c2ccncc2C1=O`: the IC50 in experiment [1] is 7.6 µM; in experiment [2], 6.8 µM. The inhibition in experiment [3] came out at 27%.

Consider `C/C=C1\c2ccccc2C(=O)C1C(N)=O` (configuration not stated), for which the inhibition in experiment [4] is 3%; in experiment [5] it was 26%; in experiment [3], 8%.

In the case of `CCC1=C(C(N)=O)C(=O)c2ccccc21`, the inhibition in experiment [4] worked out at 53%; in experiment [3] it was 8.7%. This molecule also came in with an IC50 in experiment [2] of 9.2 µM.

With `COC(=O)C1=C(c2ccccc2)c2cc(C)ccc2C1=O.COC(=O)C1=C(c2ccccc2)c2ccc(C)cc2C1=O`, the half-inhibitory concentration (IC50) in experiment [1] is 33 µM; in experiment [2], 6.4 µM. This molecule registered an inhibition in experiment [3] of 20%.

Turning to `COC(=O)C1=C(c2ccccc2)c2cc([N+](=O)[O-])ccc2C1=O.COC(=O)C1=C(c2ccccc2)c2ccc([N+](=O)[O-])cc2C1=O`, the figures for the IC50 in experiment [1] and in experiment [2] were 8.3 µM and 10 µM, respectively. Moreover, the inhibition in experiment [3] is 19%.

As for `NC(=O)C1C(=O)c2ccccc2C1c1ccccc1` (configuration not stated), the inhibition in experiment [4] stood at 8%; in experiment [5], 23%; in experiment [3], 16%.

For `NC(=O)C1=C(c2ccccc2)c2ccccc2C1O` (configuration not stated), the values for the inhibition in experiment [4], in experiment [5] and in experiment [3] were 27%, 29% and 10%, respectively.

On to `NC(=O)C1=C2CCCc3cccc(c32)C1=O`, for which the inhibition was 48% in experiment [4] and 25% in experiment [3]. The same molecule had a half-maximal inhibitory concentration (IC50) in experiment [2] of 4.2 µM.
